{"source": "patent US8101766B2", "about": "“Crystalline form of a biphenyl compound” (Theravance, Inc., priority 2004, dated 2012)", "key": {"[1]": {"tested_on": "His-induced bronchoconstriction", "assay": "Bronchoprotection in guinea pig model of histamine-induced bronchoconstriction", "format": "in vivo", "details": "inhalation", "experimental": "Duration of Bronchoprotection in Guinea Pig Models of Acetylcholine-Induced or Histamine-Induced Bronchoconstriction\nTo isolate muscarinic antagonist activity in the acetylcholine-induced bronchoconstriction model, the animals were administered propanolol, a compound that blocks β receptor activity, prior to the administration of acetylcholine. Duration of bronchoprotection in the histamine-induced bronchoconstriction model reflects β2 adrenergic receptor agonist activity.\nGroups of 6 male guinea pigs (Duncan-Hartley (HsdPoc:DH) Harlan, Madison, Wis.) weighing between 250 and 350 g were individually identified by cage cards. Throughout the study, animals were allowed access to food and water ad libitum.\nTest compounds were administered via inhalation over 10 minutes in a whole-body exposure dosing chamber (R&S Molds, San Carlos, Calif.). […] This value was measured gravimetrically by comparing pre- and post-nebulization weights of the filled nebulizer.\nThe bronchoprotective effects of test compounds administered via inhalation were evaluated using whole body plethysmography at 1.5, 24, 48 and 72 hours post-dose. […]\nOnce it was determined that baseline values were within the range of 0.3-0.9 mL/cm H2O for compliance and within the range of 0.1-0.199 cm H2O/mL per second for resistance, the pulmonary evaluation was initiated. […]"}, "β2 adrenergic receptor": {"biological_target": "β2 adrenergic receptor (Homo sapiens, UniProt P07550)", "sequence (P07550 whole entry)": "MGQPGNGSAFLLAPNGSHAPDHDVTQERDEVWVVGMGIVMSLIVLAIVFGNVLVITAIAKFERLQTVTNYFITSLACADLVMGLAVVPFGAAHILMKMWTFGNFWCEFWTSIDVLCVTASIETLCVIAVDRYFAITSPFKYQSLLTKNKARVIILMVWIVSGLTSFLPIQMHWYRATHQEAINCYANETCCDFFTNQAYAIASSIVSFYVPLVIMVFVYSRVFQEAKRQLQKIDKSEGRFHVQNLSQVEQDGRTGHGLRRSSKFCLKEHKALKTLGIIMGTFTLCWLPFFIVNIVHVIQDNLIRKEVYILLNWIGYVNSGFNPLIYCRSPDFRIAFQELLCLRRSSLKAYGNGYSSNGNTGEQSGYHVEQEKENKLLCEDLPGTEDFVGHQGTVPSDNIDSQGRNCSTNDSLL", "assay": "Whole-cell cAMP Flashplate assay with lung epithelial cell line (BEAS-2B) endogenously expressing human β2 adrenergic receptor", "format": "cell-based", "set-up": "a cell line expressing endogenous levels of the β2 adrenergic receptor, a human lung epithelial cell line (BEAS-2B) was used; host or cells: BEAS-2B human lung epithelial cells", "details": "BEAS-2B human lung epithelial cell line, endogenous receptor", "experimental": "On the day of the assay, cells were rinsed with PBS, lifted by scraping with 5 mM EDTA in PBS, and counted. Cells were pelleted by centrifugation at 1,000 rpm and re-suspended in stimulation buffer pre-warmed to 37° C. at a final concentration of 600,000 cells/mL. Cells were used at a final concentration of 100,000 to 120,000 cells/well in this assay. […] Test compounds were tested in the assay at 11 different concentrations, ranging from 10 μM to 10 pM. Reactions were incubated for 10 min at 37° C. and stopped by addition of 100 μL of ice-cold detection buffer. Plates were sealed, incubated over night at 4° C. and counted the next morning in a Topcount scintillation counter (Packard BioScience Co., Meriden, Conn.). […] Data were analyzed by nonlinear regression analysis with the GraphPad Prism Software package (GraphPad Software, Inc., San Diego, Calif.) using the 4-parameter model for sigmoidal dose-response."}}, "note": "pEC50: −log10 of the molar value.", "data": [{"compound": "COc1cc(NC(=O)CCN2CCC(OC(=O)Nc3ccccc3-c3ccccc3)CC2)c(Cl)cc1CNC[C@H](O)c1ccc(O)c2[nH]c(=O)ccc12", "note": "[compound of formula I, biphenyl-2-ylcarbamic acid 1-[2-(2-chloro-4-{[(R)-2-hydroxy-2-(8-hydroxy-2-oxo-1,2-dihydroquinolin-5-yl)ethylamino]methyl}-5-methoxyphenylcarbamoyl)ethyl]piperidin-4-yl ester]", "values": [{"measurement": "bronchoprotective effect against His-induced bronchoconstriction", "setting": "[1]", "result": "dose-dependent bronchoprotective effect"}, {"measurement": "pEC50", "setting": "β2 adrenergic receptor", "result": "> 8.00"}]}]}
